Source: PubChem BioAssay (NCI)
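Five concentrations, 48 hours, 96-well plates. GI50 marks 50% less growth. The concentration for full growth arrest is given as TGI.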

Tests used:
Assay in all cases: inhibition of tumour cell growth, NCI panel, 48 h
[1] = system: COLO 205 colon
[2] = system: HCC-2998 colon
[3] = system: HCT-116 colon
[4] = system: HL-60(TB) leukemia
[5] = system: IGROV1 ovarian
[6] = system: PC-3 prostate
[7] = system: SF-539 CNS
[8] = system: T-47D breast
[9] = system: UACC-62 melanoma
[10] = system: SR leukemia

Row | Structure (SMILES) | TGI [1] [µM] | TGI [2] [µM] | TGI [3] [µM] | TGI [4] [µM] | TGI [5] [µM] | TGI [6] [µM] | TGI [7] [µM] | TGI [8] [µM] | TGI [9] [µM] | TGI [10] [µM] | GI50 [1] [µM] | GI50 [2] [µM] | GI50 [3] [µM] | GI50 [4] [µM] | GI50 [6] [µM] | GI50 [7] [µM] | GI50 [10] [µM] | GI50 [8] [µM]
1 | COc1cc(Nc2nc3cc(C(F)(F)F)ccc3n3cccc23)cc(OC)c1OC | > 100 | > 100 | > 100 | > 100 | > 100 | > 100 | > 100 | 9.91 | > 100 |  |  |  |  |  |  |  |  | 
2 | CC(=O)O[C@H]1CC[C@@]2(C)C(=CC[C@@H]3[C@@H]2CC[C@]2(C)c4nc(Cl)ccc4C[C@@H]32)C1 | > 100 | > 100 | > 100 | > 100 | > 100 | > 100 |  | > 100 | 54.3 | > 100 |  |  |  |  |  |  |  | 
3 | COc1ccc(CNc2cc(=O)n(C)c(=O)[nH]2)cc1 | > 100 | > 100 | > 100 |  | > 100 | > 100 | > 100 | > 100 | > 100 | > 100 |  |  |  |  |  |  |  | 
4 | O=NN(CCF)C(=O)NC1CCSCC1 | > 100 | > 100 | > 100 | > 100 | > 100 |  | > 100 |  | > 100 |  |  |  |  |  |  |  |  | 
5 | CNNC(=NS(=O)(=O)c1cc(C#N)c(NNC)cc1S)NNC | > 10 | > 10 | > 10 | > 10 | > 10 | > 10 | > 10 | > 10 |  | > 10 |  |  |  |  |  |  |  | 
6 | COc1cccc(C(=O)C#Cc2cnc(OC)nc2OC)c1 | 3.88 | 17.5 | 7.67 | 5.92 | 2.12 | 2.88 |  |  | 3.08 |  |  |  |  |  |  |  |  | 
7 | Cc1cnc2c(c1C)C(=O)c1ccccc1C2=O | > 100 | > 100 | > 100 |  | > 100 | > 100 | > 100 | > 100 |  | > 100 |  |  |  |  |  |  |  | 
8 | O=C(c1ccccc1)c1c(CC(O)c2ccncc2)n(C(=O)c2ccccc2)c2ccccc12 (configuration not stated) | 33.7 | 31.5 | 29.2 | 39.9 | 40.5 |  | 32.1 |  | 31.5 | 39.5 |  |  |  |  |  |  |  | 
9 | CN1CCN(c2ccc3c(c2)NCC(=O)N3)CC1 | > 100 | > 100 | > 100 | > 100 | > 100 | > 100 |  | > 100 | > 100 | > 100 |  |  |  |  |  |  |  | 
10 | C=C1CC[C@@H](C)[C@](C)(CCc2ccoc2)C/C=C\C=C/1C(=O)O | 49.4 |  | 54.6 | 57 | > 100 | > 100 | 42.6 |  | > 100 | 59.2 |  |  |  |  |  |  |  | 
11 | CN(C)CCNC(=O)c1cccc2c(NC(CCC(N)=O)C(=O)O)c3ccccc3nc12 (configuration not stated) | 19.8 | 55.6 | > 100 |  | 36.6 | 23.5 | 21.7 |  | > 100 | > 100 |  |  |  |  |  |  |  | 
12 | C[N+](C)(C)c1ncnc2c1ncn2C1CCCO1 (configuration not stated) | > 100 | > 100 | > 100 | > 100 | > 100 | > 100 | > 100 | > 100 | > 100 |  |  |  |  |  |  |  |  | 
13 | COC(=O)C(=O)Cc1nc2ccccc2o1 |  | > 100 | > 100 | > 100 |  |  | > 100 |  | > 100 | > 100 |  |  |  |  |  |  |  | 
14 | OC(c1cccnc1Cl)c1nc2ccccc2c2ccnc(Cl)c12 (configuration not stated) | > 100 |  | > 100 | 12.5 | > 100 | 69.1 | 12.4 | > 100 | 23.7 | 17.7 |  |  |  |  |  |  |  | 
15 | Cn1c(=O)n2n(c1=O)C(C)(C13CC4CC(CC(C4)C1)C3)C13CC4CC(CC1C4)CC23 (configuration not stated) | > 100 |  |  | > 100 | > 100 | > 100 | > 100 | > 100 | > 100 | > 100 |  |  |  |  |  |  |  | 
16 | COc1ccc(C(=O)/C=C/c2ccc(OCC#N)cc2)cc1 | 40.5 | 31.8 | 24.6 |  | > 10 | > 100 | 45.4 | 46 | > 10 | 49.5 |  |  |  |  |  |  |  | 
17 | COc1ccc(NC(=O)C(=O)/C=C(\O)c2ccccc2)cc1 | > 10 | > 10 |  | > 10 | > 10 | > 10 |  | > 10 | > 10 | 3.41 |  |  |  |  |  |  |  | 
18 | O=c1[nH]c(Nc2nc3ccccc3[nH]2)nc(O)c1Cc1ccccc1 | > 100 |  | > 100 | > 100 | > 100 | > 100 | > 100 | > 100 | > 100 | > 100 |  |  |  |  |  |  |  | 
19 | C=C(C)[C@@H]1CC[C@]2(C(=O)OC)CC[C@]3(C)[C@H](CC[C@@H]4[C@@]5(C)CC[C@H](O)C(C)(C)[C@@H]5CC[C@]43C)[C@@H]12 |  |  | 37.4 | > 100 | 42.2 | 34.8 | 34.9 | 34 |  | > 100 |  |  |  |  |  |  |  | 
20 | CCN(CCN(CC)C(=O)Nc1ccccc1)C(=O)Nc1ccccc1 | > 100 | > 100 | > 100 | > 100 | > 100 | > 100 |  | > 100 | > 100 | > 100 |  |  |  |  |  |  |  | 
21 | N#CCCC1(CCC#N)CCCCCCCCC(CCC#N)(CCC#N)C(O)C1O (configuration not stated) | > 100 | > 100 | > 100 |  | > 100 | > 100 | 85.8 | > 100 | > 100 |  |  |  |  |  |  |  |  | 
22 | COc1ccc(Nc2ccc([N+](=O)[O-])cc2[N+](=O)[O-])cc1CN(CCCl)CCCl | 7.84 | 6.9 | 3.75 | 7.26 |  | 9.59 | 4.85 | 26.4 |  | 79.5 | 1.8 | 2.15 | 1.16 | 1.88 | 2.04 | 1.85 | 0.378 | 2.6
23 | CC1CC(C#N)=C2NCCN2C1=O (configuration not stated) | 37.4 | > 100 |  | > 100 | > 100 | > 100 | > 100 | > 100 |  | > 100 |  |  |  |  |  |  |  | 
